{"source": "patent US20190015445A1", "about": "“INJECTION […] DIOXIDE AND METHOD FOR MAKING SAME” (priority 2016, published 2019)", "origin": "cited, not measured here", "note": "Like-named read-outs stand apart in the source and are kept apart here."}
{"molecule": "[O][Cl+][O-]", "note": "[chlorine dioxide]", "values": [{"measurement": "solubility of chlorine dioxide", "setting": "at 20° C., aqueous solution", "value": "about 2.9 g/L"}, {"measurement": "solubility of chlorine dioxide", "setting": "at room temperature", "value": 2900, "unit": "µg/mL"}]}
